# Experimental data: patent publication US20030190325A1, “Novel peroxiredoxin defense system from mycobacterium tuberculosis” (priority 2002, published 2003)
# T1: Lpd (porcine) (Sus scrofa, UniProt P09623)
# T1 sequence (P09623 36-509): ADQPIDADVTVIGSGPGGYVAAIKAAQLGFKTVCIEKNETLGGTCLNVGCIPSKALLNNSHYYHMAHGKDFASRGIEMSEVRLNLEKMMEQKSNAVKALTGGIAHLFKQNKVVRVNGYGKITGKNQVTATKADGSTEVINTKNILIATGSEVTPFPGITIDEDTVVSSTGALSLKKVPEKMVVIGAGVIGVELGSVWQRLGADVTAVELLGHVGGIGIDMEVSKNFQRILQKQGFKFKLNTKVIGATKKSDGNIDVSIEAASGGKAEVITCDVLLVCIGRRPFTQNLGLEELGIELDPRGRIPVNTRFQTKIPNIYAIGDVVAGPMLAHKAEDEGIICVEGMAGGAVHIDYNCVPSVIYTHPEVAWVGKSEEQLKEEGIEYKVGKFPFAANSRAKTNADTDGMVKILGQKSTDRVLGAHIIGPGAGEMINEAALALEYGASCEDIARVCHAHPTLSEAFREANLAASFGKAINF
# T2: SucB (Mycobacterium tuberculosis, UniProt P9WIS7)
# T2 construct: Lpd and SucB ORFs were amplified by PCR from M. tuberculosis H37Rv genomic DNA; made in house; host or cells: E. coli BL21(DE3), pET11c, culture supplemented with lipoic acid
# T2 sequence (P9WIS7 1-553): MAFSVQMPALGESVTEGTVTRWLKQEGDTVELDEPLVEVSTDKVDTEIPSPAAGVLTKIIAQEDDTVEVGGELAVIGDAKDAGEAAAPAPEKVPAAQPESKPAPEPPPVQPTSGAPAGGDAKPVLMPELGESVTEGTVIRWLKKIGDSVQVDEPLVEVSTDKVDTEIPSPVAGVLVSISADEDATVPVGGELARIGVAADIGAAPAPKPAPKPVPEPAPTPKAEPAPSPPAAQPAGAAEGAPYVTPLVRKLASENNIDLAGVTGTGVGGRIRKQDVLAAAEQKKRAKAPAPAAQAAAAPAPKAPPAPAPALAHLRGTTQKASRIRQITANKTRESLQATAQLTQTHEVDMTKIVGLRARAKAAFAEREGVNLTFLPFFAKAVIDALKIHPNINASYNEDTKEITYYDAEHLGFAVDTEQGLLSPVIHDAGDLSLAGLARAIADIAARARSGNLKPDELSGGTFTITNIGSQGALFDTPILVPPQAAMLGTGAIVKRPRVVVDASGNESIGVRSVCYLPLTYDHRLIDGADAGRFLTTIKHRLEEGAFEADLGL
# B1: AhpD (protein encoded by the ahpD gene, Rv2429, of Mycobacterium tuberculosis) (enzyme)
# chain: MSIEKLKAALPEYAKDIKLNLSSITRSSVLDQEQLWGTLLASAAATRNPQVLADIGAEATDHLSAAARHAALGAAAIMGMNNVFYRGRGFLEGRYDDLRPGLRMNIIANPGIPKANFELWSFAVSAINGCSHCLVAHEHTLRTVGVDREAIFEALKAAAIVSGVAQALATIEALSPS
# notes: Homotrimer in the crystal; also called recombinant AhpD
# Columns and labels:
# αKG-DH (porcine) = test: Counter-test on porcine αKG-DH; assay type: biochemical; design: key to αKG-DH (porcine): “NE” means no effect; settings: at 50 μM
# Lpd (porcine) = target: T1, Lpd (porcine); test: Counter-test on porcine Lpd; assay type: biochemical; design: key: “NE” means no effect; settings: at 10 μM
# TR (bovine) = test: Counter-test on bovine TR; assay type: biochemical; design: key: “NE” means no effect; settings: at 10 μM
# SucB = target: T2, SucB; test: Inhibition constant for the enzyme identified as target: SucB; assay type: biochemical
# Excerpt: Table 2 lists the molecular structures of eleven chemical compounds that were identified from the above screen. The first three compounds in Table 2 were further identified as to which of the 3 enzymes (AhpD, Lpd, SucB) each inhibited.
# [1] = target: the molecule itself; test: X-ray crystal structure at 2.0 Å, homotrimer
Molecule,αKG-DH (porcine) inhibition (αKG-DH (porcine)),Lpd (porcine) (Lpd (porcine)),Macs Viabil. (50 μM) (mouse macrophages),TR (bovine) (TR (bovine)),αKG-DH (porcine) (αKG-DH (porcine)),Ki (SucB),binding result [1]
Cc1cc(C)cc(/N=C2/NC(=O)/C(=C\c3cc(Br)c(O)c([N+](=O)O)c3)S2)c1 [2368-0687],5-10% inhi- bition at 50 μM,NE at 10 µM,70% ±13% *clu- sters,NE at 10 μM,,,
O=C(O)CN1C(=O)/C(=C\c2ccc(-c3cccc(Cl)c3Cl)o2)SC1=S [3229-2113],,NE at 10 μM,91% ±5%,NE at 10 μM,NE at 50 μM,6 µM,
O=C(O)CCN1C(=O)/C(=C\c2ccc(-c3cccc(C(F)(F)F)c3)o2)SC1=S [2556-0286],,NE at 10 μM,80% ±1%,NE at 10 μM,NE at 50 μM,3 µM,
B1,,,,,,,binds
